Test results published in paper PMC3210919 (Biochemistry, 2011).
Like-named read-outs stand apart in the source and are kept apart here. One block for each molecule: values may come before it.

What was measured:
[1] = system: NC(=O)OP(=O)(O)O; assay: purified protein, by the assay type; settings: no free biotin, pH 7.5, 25.0 °C
[2] = molecular target: T1, wild-type RePC (Rhizobium etli, UniProt Q2K340); assay type: biochemical; settings: MgADP varied; pH 7.5, 25° C, 0.25 mM acetyl-CoA
[3] = molecular target: T1, wild-type RePC; assay type: biochemical; settings: saturating substrates and activators, 1 mM oxamate; pH 7.5, 25° C
[4] = molecular target: T1, wild-type RePC; assay type: biochemical
[5] = molecular target: K1119Q RePC mutant (Rhizobium etli, UniProt Q2K340, K1119Q)
[6] = molecular target: T882A RePC mutant (Rhizobium etli, UniProt Q2K340, T882A)
[7] = system: wild-type RePC (pyruvate carboxylase from R. etli); assay: Pyruvate carboxylation activity, malate dehydrogenase coupled assay; assay type: biochemical, Rhizobium etli
[8] = molecular target: T1, wild-type RePC; assay: HCO3^−-dependent ATPase activity in the absence of pyruvate; assay type: biochemical
[9] = substrate: CC(=O)C(=O)O; assay: purified protein, by the assay type; settings: other: (−) acetyl-CoA, 15 mM HCO3^−
[10] = wild-type, (+) 10 mM free biotin

Molecule: T882A RePC mutant (Rhizobium etli CFN 42; T882A)
Km ([1]; other: T882A): 3400 ± 500 µM
kcat ([1]; other: T882A): 0.4 s⁻¹
kcat/Km ([1]; other: T882A): 117 M⁻¹ s⁻¹

Molecule: Nc1ncnc2c1ncn2[C@@H]1O[C@H](COP(=O)(O)OP(=O)(O)O)[C@@H](O)[C@H]1O [MgADP]
% kcat of pyruvate carboxylation [2]: 0.2%

% kcat of pyruvate carboxylation [3]: 2.0%
Molecule: O=C(O)CC(=O)C(=O)O [oxaloacetate]

Molecule: CC(=O)OP(=O)(O)O [Acetyl phosphate]
% kcat of pyruvate carboxylation ([4]; phosphoryl donor varied, pH 7.5, 25° C, 0.25 mM acetyl-CoA): 0.1%
Km [4, 10]: 140 ± 40 µM
kcat [4, 10]: 0.00483 ± 3.3e-05 s⁻¹
% wild-type kcat/Km ([5]; (+) 10 mM free biotin): 57%
Km ([5]; (+) 10 mM free biotin): 370 ± 30 µM
kcat ([5]; (+) 10 mM free biotin): 0.00733 ± 0.00017 s⁻¹
% wild-type kcat/Km ([5]; no free biotin): 95%
Km ([5]; no free biotin): 290 ± 10 µM
kcat ([5]; no free biotin): 0.00783 ± 0.00017 s⁻¹
% wild-type kcat/Km ([6]; (+) 10 mM free biotin): 40%
Km ([6]; (+) 10 mM free biotin): 140 ± 10 µM
kcat ([6]; (+) 10 mM free biotin): 0.002 ± 0.00017 s⁻¹
% wild-type kcat/Km ([6]; no free biotin): 80%
Km ([6]; no free biotin): 220 ± 10 µM
kcat ([6]; no free biotin): 0.005 ± 0.00017 s⁻¹

Molecule: K1119Q RePC mutant (Rhizobium etli CFN 42; K1119Q)
Km ([1]; other: K1119Q): 880 ± 70 µM

concentration of free Mg^2+ that inhibited pyruvate carboxylation [7]: > 7 mM
fold increase in kcat ([7]; Mg^2+ increased from 0.5 to 3 mM, acetyl-CoA varied): 4.9 fold
Ka for Mg^2+ for the effect on Vmax ([7]; estimated from replot of apparent 1/Vmax vs. 1/[Mg^2+], pyruvate varied): ≈ 40 mM
concentration of free Mg^2+ that inhibited MgATP-cleavage [8]: > 7 mM
inhibition of the MgADP phosphorylation reaction by Mg^2+ ([4]; up to 11 mM Mg^2+): no inhibition
Molecule: [Mg+2] [Mg^2+]

B1: wild-type RePC (Rhizobium etli CFN 42) (protein)
chain: MPISKILVANRSEIAIRVFRAANELGIKTVAIWAEEDKLALHRFKADESYQVGRGPHLARDLGPIESYLSIDEVIRVAKLSGADAIHPGYGLLSESPEFVDACNKAGIIFIGPKADTMRQLGNKVAARNLAISVGVPVVPATEPLPDDMAEVAKMAAAIGYPVMLKASWGGGGRGMRVIRSEADLAKEVTEAKREAMAAFGKDEVYLEKLVERARHVESQILGDTHGNVVHLFERDCSVQRRNQKVVERAPAPYLSEAQRQELAAYSLKIAGATNYIGAGTVEYLMDADTGKFYFIEVNPRIQVEHTVTEVVTGIDIVKAQIHILDGAAIGTPQSGVPNQEDIRLNGHALQCRVTTEDPEHNFIPDYGRITAYRSASGFGIRLDGGTSYSGAIITRYYDPLLVKVTAWAPNPLEAISRMDRALREFRIRGVATNLTFLEAIIGHPKFRDNSYTTRFIDTTPELFQQVKRQDRATKLLTYLADVTVNGHPEAKDRPKPLENAARPVVPYANGNGVKDGTKQLLDTLGPKKFGEWMRNEKRVLLTDTTMRDGHQSLLATRMRTYDIARIAGTYSHALPNLLSLECWGGATFDVSMRFLTEDPWERLALIREGAPNLLLQMLLRGANGVGYTNYPDNVVKYFVRQAAKGGIDLFRVFDCLNWVENMRVSMDAIAEENKLCEAAICYTGDILNSARPKYDLKYYTNLAVELEKAGAHIIAVKDMAGLLKPAAAKVLFKALREATGLPIHFHTHDTSGIAAATVLAAVEAGVDAVDAAMDALSGNTSQPCLGSIVEALSGSERDPGLDPAWIRRISFYWEAVRNQYAAFESDLKGPASEVYLHEMPGGQFTNLKEQARSLGLETRWHQVAQAYADANQMFGDIVKVTPSSKVVGDMALMMVSQDLTVADVVSPDREVSFPESVVSMLKGDLGQPPSGWPEALQKKALKGEKPYTVRPGSLLKEADLDAERKVIEKKLEREVSDFEFASYLMYPKVFTDFALASDTYGPVSVLPTPAYFYGLADGEELFADIEKGKTLVIVNQAVSATDSQGMVTVFFELNGQPRRIKVPDRAHGATGAAVRRKAEPGNAAHVGAPMPGVISRVFVSSGQAVNAGDVLVSIEAMKMETAIHAEKDGTIAEVLVKAGDQIDAKDLLAVYGG
Km [9]: 13 ± 2 µM
kcat [9]: 0.0253 ± 0.0005 s⁻¹
